{"source": "patent US20230165788A1", "about": "“MULTI-DRUG FORMULATIONS FOR SUBCUTANEOUS BIODEGRADABLE RESERVOIR DEVICE” (Research Triangle Institute, priority 2020, published 2023)", "key": {"[1]": {"conditions": "beagle dogs, cited from earlier work"}, "[2]": {"conditions": "non-polymeric refillable implant, rhesus macaques; cited from earlier work"}, "[3]": {"test": "Evaluation of Elvitegravir for use in the device: solubility and dose", "assay_type": "physicochemical", "source_text": "(§1) The active agent formulation includes more than one active agent and an excipient. One or more of the more than one active agent can be one or a combination of a therapeutic, a preventative, a prophylactic and/or a contraceptive. […] Not all active agents are amenable for use in the described device. Active agents having sufficient aqueous solubility and stability and dosing requirements and that are amenable to size parameters of the device are suitable for use in the described device. Moreover, in embodiments, the active agents retain a high level of purity that is both safe and efficacious to the user throughout the intended dosage duration and are not susceptible to immediate degradation caused by environmental contents (e.g., body fluids, physiological temperature). In additional embodiments, the solubility of active agents within potential excipients can range from 0.1-50 mg/mL."}, "[4]": {"test_system": "HIV", "test": "Evaluation of Elvitegravir for use in the device: potency", "source_text": "as §1"}}}
{"smiles": "CC(C)OC(=O)[C@H](C)N[P@](=O)(CO[C@H](C)Cn1cnc2c(N)ncnc21)Oc1ccccc1", "note": "[TAF, tenofovir alafenamide]", "values": [{"measurement": "duration of drug delivery", "setting": "[1]; subdermal silicone implant with PVA-coated channels", "value": 40, "unit": "days"}, {"measurement": "adverse events", "setting": "[1]; subdermal silicone implant", "value": "without observed adverse events"}, {"measurement": "period of sustained levels of tenofovir diphosphate (TFV-DP) in PBMCs", "setting": "[2]", "value": 83, "unit": "days"}]}
{"smiles": "Nc1nc(=O)n([C@@H]2CS[C@H](CO)O2)cc1F", "note": "[FTC, emtricitabine]", "values": [{"measurement": "period of sustained levels of FTC-triphosphate (FTC-TP)", "setting": "[2]", "value": 28, "unit": "days"}]}
{"smiles": "COc1cc2c(cc1Cc1cccc(Cl)c1F)c(=O)c(C(=O)O)cn2[C@H](CO)C(C)C", "note": "[Elvitegravir]", "values": [{"measurement": "solubility", "setting": "[3]", "value": "relatively low solubility"}, {"measurement": "potency", "setting": "[4]", "value": "suboptimal potency"}]}
